“Also recorded” adds a separate entry of the source.
How the values were obtained:
[1] = tested on: 16HBE14o- cells; settings: cited from earlier work
[2] = tested on: Calu-3 cells; settings: cited from earlier work
[3] = tested on: NHBE cells; settings: cited from earlier work
[4] = in vitro; settings: human
[5] = tested on: Calu-3 monolayer; assay: TEER of Calu-3 monolayer before and after permeability study
[6] = UV-metric pKa measurement (SiriusT3); format: physicochemical; settings: experimental, SiriusT3, 25 °C, mean ± S.D.
Experimental: Experimental pKa (−log10 of the acid dissociation equilibrium constant) values of SGC and SGD were evaluated using the UV-metric pKa measurement method of the SiriusT3 automated titrator instrument and the corresponding software SiriusT3Control and SiriusT3Refine (Pion Inc., Billerica, USA). The SiriusT3 apparatus uses a deuterium lamp to determine the UV/Vis absorbance spectrum of the test solutions at each pH point. The standard aqueous UV-metric pKa measurement protocol was conducted according to manufacturer instructions. […] This was mixed with 25 μL phosphate buffer (14.7 mM K2HPO4 and 0.15 M KCl in MilliQ water) and diluted with 1.5 mL ionic strength-adjusted water (ISA water ≡ 0.15 M KCl in MilliQ water). The subsequent acid/base titration and measurement of UV absorbance was automatically performed by the SiriusT3 at 25.0 ± 0.5 °C. […] Turbidity was monitored by a turbidity sensor to ensure the absence of precipitation of the test compounds during the experiment, since accurate pKa measurements are limited to fully dissolved substances. In case turbidity occurred, individual titrations were not used for further analysis, resulting in a total of 11 analysable titrations across the 5 replicate samples for both SGC and SGD.

[7] = potentiometric logP, water-octanol (SiriusT3); format: physicochemical; settings: experimental, mean ± S.D., n = 3
Experimental: LogP (partition coefficient) evaluation was performed via SiriusT3. The potentiometric logP measurement relies on assessing the partition profile of the test substance within a two-phase water-octanol solvent system. Changes in the relative volume ratio of octanol to water lead to shifts in the apparent pKa, resulting from the partitioning between non-ionised and ionised forms. LogP values were then estimated based on these assessments.

[8] = tested on: Calu-3 cells; assay: Calu-3 cell viability, MTT assay; settings: MTT
[9] = tested on: Calu-3 monolayer; assay: bidirectional permeability across Calu-3 monolayer; settings: for concentration in the acceptor chamber (B-A): n = 3
[10] = mice, doses up to 100 mg/kg, ref Langeder et al., 2023b; cited from earlier work
[11] = tested on: SARS-CoV-2; parameters: method as in Wasilewicz et al., 2023; settings: reported to be based on inhibition of the viral main protease, ref Wasilewicz et al., 2023; read-out: anti-SARS-CoV-2 activity IC50; cited from earlier work
[12] = tested on: Calu-3 monolayer; assay: MTT assay on Calu-3 monolayer after permeability study; format: cell-based, human; settings: after B-A permeability study
Experimental: To assess potential cytotoxic effects on the monolayer, cell culture medium (10% FBS, 1% P/S) containing 0.45 mg/mL MTT reagent was added to the inserts (300 µL) and wells (1500 µL). Cells treated with fluorescein (40 µg/mL) served as a control. Samples were then incubated for 3.5 hours at 37°C. Following incubation, the MTT solution was removed, and DMSO was added to dissolve the formazan crystals (300 µL for inserts; 1500 µL for wells). The plates were incubated on a shaking platform at 200 rpm in the absence of light for 30 minutes. Subsequently, 100 µL samples from each well were pipetted into a 96-well plate, and the absorbance was measured at 570 nm using an Epoch 2 spectrophotometer.

[13] = pH-dependent thermodynamic solubility, miniaturized shake-flask method, UPLC-PDA
[14] = control experiments for serum binding and adsorption to plastic
[15] = tested on: Calu-3 cells; assay: Calu-3 cell uptake, FIA-TOFMS; format: in vitro ADME, human; settings: 50 µg/mL; for Concentration [pg/µL] 1 in cell extract / Normalized concentration [pg/cell] 1: replicate 1; for Concentration [pg/µL] 2 in cell extract / Normalized concentration [pg/cell] 2: replicate 2; for Concentration [pg/µL] 3 in cell extract / Normalized concentration [pg/cell] 3: replicate 3
Experimental: At 4, 12, and 24 h after addition, cell extracts were generated in triplicates. To that end, the medium was aspirated from the respective wells, and cells were washed with pre-warmed ammonium carbonate solution (75 mM, pH 7.4, 37 °C). Immediately after removal of the wash solvent, 300 μL cold extraction solvent (40:40:20 acetonitrile:methanol:water, −20 °C) was added per well to lyse cells in situ and stop the enzymatic activity. The bottom of each well was subsequently scraped and the cell extracts were transferred to 96-well storage plates and stored at −80 °C until analysis. […] Quantification of SGC and SGD was performed using flow-injection time-of-flight mass spectrometry (FIA-TOFMS) in negative ion mode as described previously ([Fuhrer et al., 2011]). SGC and SGD signals were identified by matching accurate masses (for both [M-H]- at 707.2127 m/z). To account for possible influences of the complex matrix in the cell extract samples, a matrix-matched series of calibration samples were prepared, in which increasing concentrations of SGC were spiked into extracts of cells that had not previously been treated with either SGC or SGD. The calibration samples were injected alongside the cell extract samples and used to establish a calibration function using linear regression. The ion intensities measured were converted into SGC and SGD concentrations and normalized by the cell number in each sample, which was determined at each time point in separate cell cultures using trypan blue staining and cell counting in a Thermo Fisher Countess II Automated cell counter after trypsin-mediated cell detachment. This procedure eventually yielded estimates of SGC and SGD contents in pg/cell.

COCCc1ccc(OCC(O)CNC(C)C)cc1 (stereo not drawn) [metoprolol]
Papp [1]: 24.5 ± 2.5 × 10^−6 cm/s
Papp [2]: 10.3 ± 0.0 × 10^−6 cm/s
Papp [3]: 11.3 ± 0.7 × 10^−6 cm/s
Papp A→B at 2 h, 500 μM [4]: 25.4 ± 6.9 ×10⁻⁶ cm/s
Papp B→A at 2 h, 500 μM [4]: 23.3 ± 4.9 ×10⁻⁶ cm/s

sanggenon D [SGD]
change in TEER during permeability study, B-A direction ([5]; 20 µg/mL in basolateral chamber, 2 h, Calu-3 batch 1): significant decrease in TEER values; also recorded: loss in TEER
TEER after 24 h of incubating with medium at 37 °C ([5]; B-A directed test wells after permeability study): showed a recovery in TEER; also recorded: recovery to initial values
pKa 1 [6]: 3.27 ± 0.37
pKa 2 [6]: 6.37 ± 0.13
pKa 3 [6]: 7.25 ± 0.32
pKa 4 [6]: 7.99 ± 0.26
pKa 5 [6]: 8.99 ± 0.08
pKa 6 [6]: 9.94 ± 0.04
pKa 7 [6]: 10.78 ± 0.01
pKa 8 [6]: 12.04 ± 0.07
logP [7]: 2.92 ± 0.07
cytotoxic effects ([8]; 50 μg/mL, 4-h and 12-h incubation): no cytotoxic effects were observed
CC50 ([8]; Calu-3 cells, 24 h exposure): 120.5 µg/mL
amount detected in the acceptor chamber (B-A) ([9]; B-A, 2 h, isolated SGD or extracts): < 0.6%
concentration in the acceptor chamber (B-A) ([9]; SGD after applying MA21 600 μg/mL, B-A, 2 h): 7.9 ± 4.2 ng/mL
concentration in the acceptor chamber (B-A) ([9]; SGD after applying MA60 100 μg/mL, B-A, 2 h): 10.6 ± 5.7 ng/mL
permeability across intact Calu-3 monolayers ([9]; abstract statement): no measurable permeability
evidence for permeability of SGC or SGD ([9]; applied as extracts MA60 (100 μg/mL) and MA21 (600 μg/mL), 2 h): Neither by applying the isolated compounds nor the extracts MA60 and MA21, any evidence for the permeability of SGC or SGD was detectable
concentration in the acceptor chamber (B-A) ([9]; isolated SGD 20 μg/mL applied, B-A, 2 h): 35.4 ± 15.1 ng/mL
detection in the acceptor chamber after 2 h of incubation (A-B direction) ([9]; isolated compound 20 μg/mL, A-B): could not be detected
serum and tissue concentrations after oral administration [10]: low serum and tissue concentrations
IC50 [11]: 13.9 µM
cytotoxic effects on Calu-3 monolayer after permeability study (MTT) [12]: Neither batch 1 nor batch 2 showed a decrease in cell viability; also recorded: no cytotoxic effects
pH 1.2 solubility ([13]; compound within extract MA21, pH 1.2): < LOQ
pH 4.5 solubility ([13]; compound within extract MA21, pH 4.5): < LOQ
pH 6.8 solubility ([13]; compound within extract MA21, pH 6.8): < LOQ
pH 7.4 solubility ([13]; compound within extract MA21, pH 7.4): < LOQ
pH 1.2 solubility ([13]; compound within extract MA60, pH 1.2): 20.6 µg/mL
pH 4.5 solubility ([13]; compound within extract MA60, pH 4.5): 19.7 µg/mL
pH 6.8 solubility ([13]; compound within extract MA60, pH 6.8): 56.8 µg/mL
pH 7.4 solubility ([13]; compound within extract MA60, pH 7.4): 94.9 µg/mL
pH 1.2 solubility ([13]; isolated compound, HCl buffer pH 1.2, 24 h, 24 °C): 111 µg/mL
pH 4.5 solubility ([13]; isolated compound, acetate buffer pH 4.5, 24 h, 24 °C): 121 µg/mL
pH 6.8 solubility ([13]; isolated compound, phosphate buffer pH 6.8, 24 h, 24 °C): 304 µg/mL
pH 7.4 solubility ([13]; isolated compound, phosphate buffer pH 7.4, 24 h, 24 °C): 493 µg/mL
binding to serum proteins [14]: no indication that SGC or SGD bind to serum proteins
intracellular content, Mean [pg/cell] ([15]; 4 h): 0.3 ± 0.2 pg/cell
Concentration [pg/µL] 1 in cell extract ([15]; 4 h): 449 pg/µL
Normalized concentration [pg/cell] 1 ([15]; 4 h): 0.23 pg/cell
Concentration [pg/µL] 2 in cell extract ([15]; 4 h): 281 pg/µL
Normalized concentration [pg/cell] 2 ([15]; 4 h): 0.14 pg/cell
Concentration [pg/µL] 3 in cell extract ([15]; 4 h): 1158 pg/µL
Normalized concentration [pg/cell] 3 ([15]; 4 h): 0.60 pg/cell
intracellular content, Mean [pg/cell] ([15]; 4 h, listed as Sanggenon D): 0.32 pg/cell
intracellular content, Mean [pg/cell] ([15]; 12 h): 0.54 pg/cell
Concentration [pg/µL] 1 in cell extract ([15]; 12 h): 1137 pg/µL
Normalized concentration [pg/cell] 1 ([15]; 12 h): 0.57 pg/cell
Concentration [pg/µL] 2 in cell extract ([15]; 12 h): 1116 pg/µL
Normalized concentration [pg/cell] 2 ([15]; 12 h): 0.55 pg/cell
Concentration [pg/µL] 3 in cell extract ([15]; 12 h): 1014 pg/µL
Normalized concentration [pg/cell] 3 ([15]; 12 h): 0.50 pg/cell
intracellular content, Mean [pg/cell] ([15]; 24 h): 0.69 pg/cell
Concentration [pg/µL] 1 in cell extract ([15]; 24 h): 1552 pg/µL
Normalized concentration [pg/cell] 1 ([15]; 24 h): 0.59 pg/cell
Concentration [pg/µL] 2 in cell extract ([15]; 24 h): 2206 pg/µL
Normalized concentration [pg/cell] 2 ([15]; 24 h): 0.84 pg/cell
Concentration [pg/µL] 3 in cell extract ([15]; 24 h): 1671 pg/µL
Normalized concentration [pg/cell] 3 ([15]; 24 h): 0.63 pg/cell

— publication PMC11381475, “Biopharmaceutical profiling of anti-infective sanggenons from Morus alba root bark for inhalation administration” (International Journal of Pharmaceutics: X, 2024)
